Source: publication PMC8556085, “Antimicrobial and Antioxidant Secondary Metabolites from Trifolium baccarinii Chiov. (Fabaceae) and Their Mechanisms of Antibacterial Action” (BioMed Research International, 2021)
Values after ≈ are worked out from the molar mass of the structure shown.

Assays:
[1] = DPPH free radical scavenging assay
Experimental: The free radical scavenging activity of extracts and compounds was evaluated according to the described method. The EC50 (μg/mL), which is the amount of sample necessary to inhibit by 50% the absorbance of free radical DPPH, was calculated. Vitamin C was used as a standard control. All the analyses were carried out in triplicate and repeated three times.

[2] = Gallic acid equivalent antioxidant capacity (GEAC) assay
Experimental: The GEAC test was performed as described previously with some slight modifications. The laccase was purified from Sclerotinia sclerotiorum according to the described protocol. 20 μL of laccase (1 mM stock solution), 20 μL of test sample, 10 μL of ABTS (2,2′-azino-bis(3-ethylbenzothiazoline-6-sulfonic acid) (74 mM stock solution), and 950 μL of acetate buffer (pH = 5.0, 100 mM) were added in a quartz cuvette. The concentrations of the samples in the assay mixture were 800, 400, 200, 100, and 10 μg/mL for the extracts and 200, 100, 50, 25, and 12.5 μg/mL for the isolated compounds. The content of the generated ABTS^●+ radical was measured at 420 nm after 240 s reaction time and was converted to gallic acid equivalents by the use of a calibration curve (Pearson's correlation coefficient: r = 0.998) constructed with 0, 4, 10, 14, 28, 56, and 84 μM gallic acid standards rather than Trolox. Experiments were done in triplicate and repeated three times with similar results.

[3] = system: tested bacteria and yeasts; assay: Broth microdilution MIC/MMC, summary over all strains; type: cell-based; conditions: for antimicrobial activity class of pure compounds by cutoff points: against specific microorganism, cutoff points of ref 33; for antimicrobial activity: against the tested microorganisms; for MIC: read-out: MIC (range over the tested microorganisms)
Experimental: (§1) The antimicrobial activity was performed against five bacterial and two fungal species. The selected microorganisms were the Gram-positive (Staphylococcus aureus ATCC25923, methicillin-resistant Staphylococcus aureus 03 (MRSA03), and methicillin-resistant Staphylococcus aureus 04 (MRSA04)) and Gram-negative (Pseudomonas aeruginosa ATCC27853 and Escherichia coli S2(1)) bacteria and yeast strains of Candida albicans ATCC10231 and Cryptococcus neoformans H99. These microorganisms were taken from our laboratory collection. The fungal and bacterial strains were conserved on Sabouraud Dextrose Agar (SDA, Conda, Madrid, Spain) and nutrient agar (NA, Conda) slants, respectively.
(§2) The antimicrobial activity was investigated by determining the minimum inhibitory concentrations (MICs), minimum bactericidal concentrations (MBC), and minimum fungicidal concentrations (MFCs). MICs of extracts/compounds were monitored using the broth microdilution method. Dimethyl sulfoxide (DMSO, Fisher Chemicals) was used to dissolve the test sample to produce a stock solution that was twofold serially diluted in Mueller-Hinton broth (MHB) for bacteria and Sabouraud Dextrose Broth (SDB) for fungi to obtain a concentration range of 4096 to 0.25 μg/mL. One hundred microliters of each concentration was introduced into a well (96-well microplate) containing 90 μL of SDB or MHB and 10 μL of inoculum (at 1 × 10^6 CFU/mL for bacteria and 1 × 10^5 spores/mL for yeasts) which were added to obtain a final concentration range of 2048 to 0.125 μg/mL. Plates were covered and incubated on the shaker at 37°C, 30°C, and 30°C during 24 h, 48 h, and 72 h for bacteria, Candida albicans, and Cryptococcus neoformans, respectively. The MICs were visually assessed after the incubation period and were considered the lowest sample concentration that inhibits the growth or the visual growth of the organism.
(§3) The positive controls were oxacillin (Sigma-Aldrich, Steinheim, Germany) for bacteria and nystatin (Sigma-Aldrich, Steinheim, Germany) for yeasts, and the negative control was broth with 20 μL of DMSO. The assay was carried out in triplicate.

[4] = system: methicillin-resistant Staphylococcus aureus 04 (MRSA04); assay: Broth microdilution MIC/MMC; type: cell-based; conditions: for MBC / MIC: Staphylococcus aureus; for MIC: MRSA04, 24 h, 37°C, read-out: MIC
Experimental: as §1, §2, §3

[5] = system: Staphylococcus aureus ATCC25923; assay: Broth microdilution MIC/MMC; type: cell-based; conditions: for MIC: Staphylococcus aureus ATCC25923, 24 h, 37°C, read-out: MIC
Experimental: as §1, §2, §3

[6] = system: Pseudomonas aeruginosa ATCC27853; assay: Broth microdilution MIC/MMC; type: cell-based; conditions: for MIC: Pseudomonas aeruginosa ATCC27853, 24 h, 37°C, read-out: MIC
Experimental: as §1, §2, §3

[7] = system: methicillin-resistant Staphylococcus aureus 03 (MRSA03); assay: Broth microdilution MIC/MMC; type: cell-based; conditions: for MBC / MIC: Staphylococcus aureus; for MIC: MRSA03, 24 h, 37°C, read-out: MIC
Experimental: as §1, §2, §3

[8] = system: Cryptococcus neoformans H99; assay: Broth microdilution MIC/MMC; type: cell-based; conditions: for MFC: Cryptococcus neoformans H99; for MIC: Cryptococcus neoformans H99, 72 h, 30°C, read-out: MIC
Experimental: as §1, §2, §3

Escherichia coli S2(1) = assay: Broth microdilution MIC/MMC; type: cell-based; conditions: for MIC: 24 h, 37°C, read-out: MIC
Experimental: as §1, §2, §3

[9] = system: Candida albicans ATCC10231; assay: Broth microdilution MIC/MMC; type: cell-based; conditions: for MFC: Candida albicans ATCC10231; for MIC: Candida albicans ATCC10231, 48 h, 30°C, read-out: MIC
Experimental: as §1, §2, §3

catalase = assay: Catalase activity in treated bacterial cell lysates; type: cell-based; conditions: Staphylococcus aureus ATCC25923 and MRSA03, MIC and 1/2xMIC, 24 h
Experimental: (§4) (3) Antioxidant Enzyme Activities. For evaluation of catalase and superoxide dismutase (SOD) activities, Staphylococcus aureus ATCC25923 and MRSA03 (1.5 × 10^8 CFU/mL, 500 μL) cultures from the late exponential growth phase were treated with MIC and 1/2xMIC of the methanol extract (500 μL), compound 5 (500 μL), and oxacillin (500 μL) solutions and incubated at 37°C for 24 h. The suspension was centrifuged at 3000 rpm for 5 min to separate the supernatant. The pellet was washed twice with PBS and resuspended in 500 μL of cell lysate buffer (1 mM EDTA, 10 Mm Tris-HCl, 0.1% Triton-X-100, and 150 mM NaCl) and incubated at 37°C for 1 h. Contents were then centrifuged at 3000 rpm for 5 min, and the supernatant was collected for enzyme activity assays.
Catalase activity. This was assessed by using a kit (Sigma, catalogue no. CAT100) with a cell lysate. Briefly, 750 μL of assay buffer (50 mM) was mixed with 25 μL of 50 mM H2O2 and 10 μL of cell lysate. […] The absorbance was monitored at 520 nm, and the catalase activity was calculated based on the following equation: [Δμ moles (H2O2) × d × 100)/V × t], where Δμ moles (H2O2) is the difference in amount of H2O2 added to the reaction mixture between blank and given samples, d is the dilution of the original sample for catalase reaction, V is the sample volume in catalase reaction, and t is the reaction duration (min).

[10] = system: Staphylococcus aureus ATCC25923; assay: Bacteriolytic assay (time-kill kinetic method, OD600); type: cell-based; conditions: Staphylococcus aureus ATCC25923 suspension, 2xMIC, after 240 min, compared to the 0 time value
Experimental: (§5) (1) Bacteriolytic Assay. […] Full growth of bacterium in MHB was diluted 100 times and incubated at 37°C to produce an OD600 of 0.8 as a starting inoculum. Sample solutions were added to the starting bacterial suspension to give a final concentration of 2xMIC and incubated at 37°C under agitation at 150 rpm. After the incubation period corresponding to 0, 15, 30, 60, 120, and 240 min, 100 μL was pipetted from each tube and the optical density was recorded at 600 nm using the Biobase UV-Vis spectrophotometer. Corresponding dilutions of test samples were used as blanks. Oxacillin was used as a positive control, and the tubes without an extract/compound served as negative controls. All the measurements were done in triplicate and repeated three times.

[11] = system: Pseudomonas aeruginosa ATCC27853; assay: as above; type: cell-based; conditions: Pseudomonas aeruginosa suspension, 2xMIC, after 240 min, compared to the 0 time value
Experimental: as §5

[12] = system: superoxide dismutase (SOD); assay: Superoxide dismutase (SOD) activity in treated bacterial cell lysates; type: cell-based; conditions: Staphylococcus aureus ATCC25923 and MRSA03, MIC and 1/2xMIC, 24 h
Experimental: as §4
Superoxide dismutase (SOD) activity. This was determined using a kit (Sigma, catalogue no. 19160) in the cell lysate. […] The reaction mixture was incubated in the dark at 37°C for 20 min, and the absorbance was read at 450 nm on a BioTek Synergy 2 multiplate reader. The SOD activity was calculated based on the following formula: [(ABlank1–ABlank3) − (ASample–ABlank2)/(ABlank1–ABlank3) × 100], where Blank 1 contains ultrapure water, WST solution, and enzyme solution, Blank 2 contains sample solution, WST solution, and dilution buffer, and Blank 3 contains ultrapure water, WST solution, and dilution buffer.

red blood cells (RBCs) = type: cell-based, Wistar rats (Rattus norvegicus)
Experimental: Wistar rats (Rattus norvegicus) aged 10–12 weeks and weighing 220 to 250 g were randomly selected from our colony. Efforts were also made to minimize animal suffering and to reduce the number of animals used in the experiment. Intraperitoneal injection of the mixture of ketamine (50 mg/kg body weight, BW) and xylazine (10 mg/kg BW) was used to anaesthetize the rats in a dose that is commonly used for operation purposes. And subsequently, the unconscious animals were quickly operated on and the whole blood (10 mL) was collected by cardiac puncture into a conical tube containing Ethylenediaminetetraacetic Acid (EDTA) as an anticoagulant. Red blood cells were harvested by centrifugation at room temperature for 10 min at 1,000 × g and were washed three times in PBS buffer^23. The haemolysis assay was evaluated as previously described.

[13] = Staphylococcus aureus ATCC25923
[14] = Pseudomonas aeruginosa ATCC27853

Compound	activity in DPPH assay [1]	activity in TEAC assay [2]	antimicrobial activity class of pure compounds by cutoff points [3]	antimicrobial activity [3]	MIC [3] [µg/mL]	MBC ([4]; MRSA04) [µg/mL]	MIC [4] [µg/mL]	MBC [5, 13] [µg/mL]	MIC [5] [µg/mL]	MBC [6, 14] [µg/mL]	MIC [6] [µg/mL]	MBC ([7]; MRSA03) [µg/mL]	MIC [7] [µg/mL]	MFC [8] [µg/mL]	MIC [8] [µg/mL]	MBC (Escherichia coli S2(1)) [µg/mL]	MIC (Escherichia coli S2(1)) [µg/mL]	MFC [9] [µg/mL]	MIC [9] [µg/mL]	also measured
OC[C@@H](O)[C@@H](O)[C@H](O)[C@H](O)CO [compound 9, D-mannitol]	inactive	inactive	low/not active	low activity	≥ 128	> 256	> 256	> 256	128 (≈ 703 µM)	> 256	256 (≈ 1410 µM)	> 256	> 256	> 256	256 (≈ 1410 µM)	> 256	128 (≈ 703 µM)	> 256	> 256	–
CC1(C)CC(O)C2(C)CCC3(C)C(=CCC4C5(C)CCC(OC6OC(C(=O)O)C(O)C(O)C6O)C(C)(CO)C5CCC43C)C2C1 [compound 10, 3-O-β-D-glucuronopyranosylsoyasapogenol B]	inactive	inactive	low/not active	low activity	≥ 256	> 256	> 256	> 256	256 (≈ 403 µM)	> 256	256 (≈ 403 µM)	> 256	> 256	> 256	256 (≈ 403 µM)	> 256	256 (≈ 403 µM)	> 256	> 256	–
Cc1onc(-c2ccccc2)c1C(=O)N[C@@H]1C(=O)N2[C@@H]1SC(C)(C)[C@@H]2C(=O)O [oxacillin, reference compound]	–	–	–	–	–	8 (≈ 19.9 µM)	8 (≈ 19.9 µM)	1 (≈ 2.49 µM)	1 (≈ 2.49 µM)	2 (≈ 4.98 µM)	2 (≈ 4.98 µM)	8 (≈ 19.9 µM)	4 (≈ 9.96 µM)	–	–	32 (≈ 79.7 µM)	16 (≈ 39.9 µM)	–	–	catalase activity vs untreated cell lysates (catalase): significant concentration-dependent decreases; MMC/MIC (microbicidal activities) ([3]; against all the tested microorganisms): ≤ 4; decline in cell turbidity [10]: 2%; decline in cell turbidity [11]: 2%; MMC/MIC ([4]; MRSA04): 1; MMC/MIC [5, 13]: 1; MMC/MIC [6, 14]: 1; MMC/MIC ([7]; MRSA03): 2; MMC/MIC (Escherichia coli S2(1)): 2; SOD activity vs untreated cell lysates [12]: significant concentration-dependent decreases
Triton X-100	–	–	–	–	–	–	–	–	–	–	–	–	–	–	–	–	–	–	–	lysis of RBCs (red blood cells (RBCs)): about 100%
